Test results taken from US11930822B2, “Methylobacterium compositions for fungal disease control” (priority 2017, dated 2024).

Legend:
[1] = test system: P. torulosum, P. oopapillum, P. sylvaticum and P. lutarium; assay: Greenhouse Pythium assay in soybean, consortium of 4 Pythium species; type: in vivo, Pythium spp.
Procedure: (§1) A greenhouse experiment was conducted is to evaluate the ability of Methylobacterium strains to suppress Pythium disease in soybean. Methylobacterium treatments were compared to treatments with metalaxyl at various rates to determine if Methylobacterium strains can provide protection beyond and in addition to the level of protection provided by commonly used agronomic seed treatments. The experiment was designed to allow for growth of plants for in the presence of moderate levels of Pythium. spp. to determine impacts on emergence, % dead seed and root rot incidence and severity.
(§2) Pythium inoculants were prepared by mixing 453 g of parboiled rice and 323 mL of distilled water, placing the rice in a vented autoclavable plastic bag, and autoclaving 2×40 minutes with each cycle separated by 24 hours. Rice was inoculated with 3-4-day-old Pythium cultures and incubated for 7-10 days at 23 °C in the dark. The inoculum was then dried for 2 days.
(§3) A 20 ml layer of rice inoculum is placed on soil in cups and additional soil layered on top of the inoculum to position the inoculum approximately 2-3 cm below the seeds to be planted. Water is added to the soil and 10 seeds are planted in each cup. Domes are placed over the cups and the cups are placed in growth chambers with temperature set at 230C, and on a diurnal cycle of 16 h light and 8 h dark. The seeds are incubated for 14 days at 23 °C. For experiments to assess activity of Methylobacterium strains against a consortium of 4 Pythium species, the seeds are incubated for 14 days at 130C and for an additional 7 days at 23 °C.
(§4) Plants are rated when the first trifoliate is fully emerged and open to determine total plant weight, number of seedlings and number of dead seeds. Disease incidence is evaluated as percent plants with rotted roots and disease severity as percent rotted root tissue for each seedling.
Results from inoculation with a consortium of 4 Pythium species at alternating temperature of 130C and 230C are shown in Tables 35-36 below. The four species, which are all important pathogens of corn and soybean, are P. torulosum, P. oopapillum, P. sylvaticum and P. lutarium.

Pythium lutarium = assay: Greenhouse Pythium assay in soybean, Pythium lutarium; type: in vivo
Procedure: as §1, §2, §3, §4

Pythium sylvaticum = assay: Greenhouse Pythium assay in soybean, Pythium sylvaticum; type: in vivo
Procedure: as §1, §2, §3, §4

Compound: COCC(=O)N(c1c(C)cccc1C)C(C)C(=O)OC (stereo not drawn) [metalaxyl]
- Mean Dead Seed (%) ([1]; Table 35, 0.35 Fl. oz/cwt): 6%
- Mean Emergence (%) ([1]; Table 35, 0.35 Fl. oz/cwt): 94%
- Mean Dead Seed (%) ([1]; Table 35, 0.75 Fl. oz/cwt): 2%
- Mean Emergence (%) ([1]; Table 35, 0.75 Fl. oz/cwt): 100%
- Mean Dead Seed (%) ([1]; Table 35, 1.25 Fl. oz/cwt): 2%
- Mean Emergence (%) ([1]; Table 35, 1.25 Fl. oz/cwt): 94%
- Root Rot INC (%) ([1]; Table 36, 0.35 Fl. oz/cwt): 94%
- Root Rot Severity (%) ([1]; Table 36, 0.35 Fl. oz/cwt): 13%
- Root Rot INC (%) ([1]; Table 36, 0.75 Fl. oz/cwt): 100%
- Root Rot Severity (%) ([1]; Table 36, 0.75 Fl. oz/cwt): 12%
- Root Rot INC (%) ([1]; Table 36, 1.25 Fl. oz/cwt): 94%
- Root Rot Severity (%) ([1]; Table 36, 1.25 Fl. oz/cwt): 9%
- % Dead Seed (Pythium lutarium; Table 33, 0.75 Fl. oz/cwt): 3%
- Mean Emergence (%) (Pythium lutarium; Table 33, 0.75 Fl. oz/cwt): 97%
- % Dead Seed (Pythium lutarium; Table 33, 1.25 Fl. oz/cwt): 67%
- Mean Emergence (%) (Pythium lutarium; Table 33, 1.25 Fl. oz/cwt): 93%
- Mean Root Rot Incidence (%) (Pythium lutarium; Table 34, 0.35 Fl. oz/cwt): 95%
- Mean Root Rot Severity (%) (Pythium lutarium; Table 34, 0.35 Fl. oz/cwt): 13%
- Mean Root Rot Incidence (%) (Pythium lutarium; Table 34, 0.75 Fl. oz/cwt): 95%
- Mean Root Rot Severity (%) (Pythium lutarium; Table 34, 0.75 Fl. oz/cwt): 10%
- Mean Root Rot Incidence (%) (Pythium lutarium; Table 34, 1.25 Fl. oz/cwt): 93%
- Mean Root Rot Severity (%) (Pythium lutarium; Table 34, 1.25 Fl. oz/cwt): 11%
- % Dead Seed (Pythium sylvaticum; Table 31, 0.35 Fl. oz/cwt): 18%
- Emergence (Pythium sylvaticum; Table 31, 0.35 Fl. oz/cwt): 82
- Mean Emergence (%) (Pythium sylvaticum; Table 32, 0.35 Fl. oz/cwt): 78%
- Mean Root Rot Severity (%) (Pythium sylvaticum; Table 32, 0.35 Fl. oz/cwt): 17%
- Mean Emergence (%) (Pythium sylvaticum; Table 32, 0.75 Fl. oz/cwt): 92%
- Mean Root Rot Severity (%) (Pythium sylvaticum; Table 32, 0.75 Fl. oz/cwt): 18%
- Mean Emergence (%) (Pythium sylvaticum; Table 32, 1.25 Fl. oz/cwt): 78%
- Mean Root Rot Severity (%) (Pythium sylvaticum; Table 32, 1.25 Fl. oz/cwt): 21%
